Literature values as cited in patent publication US20220273590A1, “COMPOUNDS FOR PREVENTION AND TREATMENT OF POST-OPERATIVE COGNITIVE DYSFUNCTION” (ABREXA PHARMACEUTICALS, INC., priority 2019, published 2022).

Settings: cited from earlier work

For `CCN(C)C(=O)Oc1cccc([C@H](C)N(C)C)c1` [Rivastigmine], the “efficacy for the treatment of POCD” value (clinical investigation NCT00835159, at termination) is listed as “no efficacy was observed” and the “safety in the treatment of POCD” value (seriously ill patients after surgery, clinical investigation NCT00835159 terminated) is listed as “too dangerous”.
In the case of `[Mg+2]` [Magnesium], the “reduction of POCD” value (administered intravenously during cardiac surgery, clinical trial NCT00041392) is given as “failed to reduce POCD”.
For `Cc1cccc([C@H](C)c2cnc[nH]2)c1C` [Dexmedetomidine], the “efficacy for POCD” value (Skvarc et al. (2018)) is given as “failed to show efficacy”.
